Assays:
UGT76G1 = target: T1, UGT76G1 (Stevia rebaudiana, UniProt Q6VAB4); assay: MST binding to UGT76G1 (negative control protein)
T1 construct: made in house
T1 sequence (Q6VAB4 1-458): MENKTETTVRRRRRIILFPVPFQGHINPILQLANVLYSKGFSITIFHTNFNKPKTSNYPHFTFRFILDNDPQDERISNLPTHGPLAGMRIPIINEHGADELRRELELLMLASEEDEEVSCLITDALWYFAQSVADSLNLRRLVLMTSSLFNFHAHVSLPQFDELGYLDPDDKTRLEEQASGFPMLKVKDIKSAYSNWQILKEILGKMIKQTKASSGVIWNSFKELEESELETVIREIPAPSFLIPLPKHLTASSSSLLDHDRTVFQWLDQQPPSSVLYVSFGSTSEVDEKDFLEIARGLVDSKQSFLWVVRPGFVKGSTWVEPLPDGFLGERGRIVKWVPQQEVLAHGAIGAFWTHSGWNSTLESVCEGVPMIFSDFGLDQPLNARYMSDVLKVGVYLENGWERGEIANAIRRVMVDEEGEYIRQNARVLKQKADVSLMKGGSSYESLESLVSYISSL

GmNFR5a^ECD = GmNFR5a^ECD (Glycine max, UniProt A5YJV9); assay: Microscale thermophoresis (MST) binding to GmNFR5a^ECD; set-up: species or system soybean (Glycine max); conditions: ligand dp6, His-tagged protein purified from Pichia pastoris, read-out: dissociation constant (K D) with GmNFR5a^ECD
Text: (§1) The ectodomains of GmCERK1, GmNFR5a, and mutants were cloned into the yeast expression vector pPICZαA (Thermo Fisher Scientific, Shanghai, China) through the double digestion and ligation using the restriction endonuclease EcoRI/XbaI (NEB, Suzhou, China) and T4 ligase. Then, the linearized recombinant plasmid pPICZαA‐GmCERK1 and pPICZαA‐GmNFR5a were transformed into P. pastoris X‐33. The positive colonies were selected on YPDS medium (1% w/v yeast extract, 2% w/v peptone, 2% w/v glucose, 2% w/v agar, 100 μg/mL antibiotic Zeocin (Thermo Fisher Scientific)) plates and verified by direct DNA sequencing. Protein expression was carried out initially in BMGY media (100 mM potassium phosphate pH 6.0, 1.34% w/v YNB, 4 × 10^−5% w/v biotin, 1% v/v glycerol) at 28°C with shaking (180 rpm) until the OD600 reached 2.0–6.0. The cell pellet was transferred into BMMY medium (100 mM potassium phosphate pH 6.0, 1.34% w/v YNB, 4 × 10^−5% w/v biotin, 0.5% v/v methanol) and continuously supplied with the addition of 0.5% (v/v) methanol every day for 5 d. […]
(§2) GmCERK1^ECD, GmNFR5a^ECD, and all mutants were labeled with a fluorescent dye using the Monolith Protein Labeling Kit RED‐NHS second Generation (MO‐L011). […] The data were analyzed and fitted by plotting ligand concentrations against bound fractions using the MO.Affinity Analysis v3.0.5 software. […]

[1] = system: GmNFR5a-GmCERK1 interaction; assay: Co-immunoprecipitation of GmNFR5a-GFP with GmCERK1-HA in N. benthamiana; format: cell-based, soybean (Glycine max); conditions: Co-IP; N. benthamiana leaves treated 50 mg/L for 5 min
Method: (§3) Nicotiana benthamiana leaves were harvested 48 h post inoculation (hpi) after agroinfiltration. Samples were ground in liquid nitrogen and incubated for 30 min in a lysis buffer (50 mM Tris-HCl pH 8.0, 150 mM NaCl, 1.0% (v/v) NP-40, 0.1% SDS (w/v) and 0.1% protease inhibitor cocktail ([…]; Sigma, St. Louis, MI, USA)). Supernatant was collected by centrifugation at 21,000 g for 15 min and then incubated with GFP-trap beads (item No.: gta-20; Chromotek, Hauppauge, NY, USA) at 4°C for 2 h. The GFP-trap beads were pelleted by centrifugation at 500 g for 2 min and washed with lysis buffer at least four times. Proteins were eluted by boiling the beads in a protein loading buffer for 10 min and detected by immunoblot analysis with anti-GFP (Cat No. M20004; Abmart, Shanghai, China) or anti-HA (Cat No. M20013; Abmart, Shanghai, China).

GmNFR5a homodimer = assay: Co-immunoprecipitation of GFP-tagged GmNFR5a with HA-tagged GmNFR5a in N. benthamiana; format: cell-based, soybean (Glycine max); conditions: Co-IP; N. benthamiana leaves treated 50 mg/L for 5 min
Method: as §3

AtCERK1^ECD = target: T2, AtCERK1^ECD (Arabidopsis thaliana, UniProt A8R7E6); assay: Microscale thermophoresis (MST) binding to AtCERK1^ECD (positive control); conditions: ligand dp6, protein purified from Pichia pastoris, read-out: dissociation constant (K D) with AtCERK1^ECD
T2 construct: ectodomain of AtCERK1 (aa25–224); made in house; host or cells: Pichia pastoris X-33
T2 sequence (A8R7E6 25-224): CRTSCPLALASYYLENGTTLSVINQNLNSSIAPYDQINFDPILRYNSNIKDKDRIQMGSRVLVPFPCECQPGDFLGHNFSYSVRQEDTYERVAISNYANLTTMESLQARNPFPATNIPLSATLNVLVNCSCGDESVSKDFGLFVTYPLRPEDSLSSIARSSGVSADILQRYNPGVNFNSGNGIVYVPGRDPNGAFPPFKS

GmCERK1^ECD = GmCERK1^ECD (Glycine max, UniProt K7N1N7); assay: Microscale thermophoresis (MST) binding to GmCERK1^ECD; set-up: species or system soybean (Glycine max); conditions: ligand dp6, His-tagged protein purified from Pichia pastoris, read-out: dissociation constant (K D) with GmCERK1^ECD
Text: as §1, §2

Sequence of GmNFR5a^ECD (A5YJV9 entry or part of it): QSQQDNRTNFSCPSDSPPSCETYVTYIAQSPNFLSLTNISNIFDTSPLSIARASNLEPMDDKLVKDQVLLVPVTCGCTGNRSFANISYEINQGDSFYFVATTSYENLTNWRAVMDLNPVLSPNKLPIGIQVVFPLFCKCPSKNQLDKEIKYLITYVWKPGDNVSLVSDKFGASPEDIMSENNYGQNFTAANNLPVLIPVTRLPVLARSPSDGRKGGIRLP
Sequence of GmCERK1^ECD (K7N1N7 entry or part of it): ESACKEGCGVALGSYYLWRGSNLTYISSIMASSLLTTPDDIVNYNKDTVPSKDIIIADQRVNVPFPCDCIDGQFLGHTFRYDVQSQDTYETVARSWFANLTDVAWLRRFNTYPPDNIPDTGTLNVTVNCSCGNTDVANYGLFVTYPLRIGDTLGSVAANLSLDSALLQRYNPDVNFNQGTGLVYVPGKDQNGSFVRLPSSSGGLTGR

Structure (SMILES)	binding to UGT76G1 (UGT76G1)	Kd (GmNFR5a^ECD)	GmNFR5a interaction with GmCERK1 [1]	GmNFR5a homodimer formation (GmNFR5a homodimer)	Kd (AtCERK1^ECD)	Kd (GmCERK1^ECD)
N[C@H]1[C@H](O[C@H]2[C@H](O)[C@@H](N)[C@H](O[C@H]3[C@H](O)[C@@H](N)[C@H](O[C@H]4[C@H](O)[C@@H](N)[C@H](O[C@H]5[C@H](O)[C@@H](N)[C@H](O[C@H]6[C@H](O)[C@@H](N)C(O)O[C@@H]6CO)O[C@@H]5CO)O[C@@H]4CO)O[C@@H]3CO)O[C@@H]2CO)O[C@H](CO)[C@@H](O)[C@@H]1O (stereo partly drawn) [CSOS (dp6), chitosan oligosaccharide]	cannot bind	7.04 ± 2.62 mM	interacted strongly	strong homodimer	2.73 ± 0.43 mM	10.6 ± 1.46 mM
CC(=O)N[C@H]1[C@H](O[C@H]2[C@H](O)[C@@H](NC(C)=O)[C@H](O[C@H]3[C@H](O)[C@@H](NC(C)=O)C(O)O[C@@H]3CO)O[C@@H]2CO)O[C@H](CO)[C@@H](O[C@@H]2O[C@H](CO)[C@@H](O[C@@H]3O[C@H](CO)[C@@H](O[C@@H]4O[C@H](CO)[C@@H](O)[C@H](O)[C@H]4NC(C)=O)[C@H](O)[C@H]3NC(C)=O)[C@H](O)[C@H]2NC(C)=O)[C@@H]1O (stereo partly drawn) [CTOS (dp6), chitin oligosaccharide]	cannot bind	20.5 ± 6.07 mM	interacted strongly	strong homodimer	0.66 ± 0.27 mM	3.25 ± 0.95 mM

— paper PMC12782889, “A GmNRF5a–GmCERK1–GmCAK1 module mediates chitin/chitosan‐triggered immune response in soybean” (Journal of Integrative Plant Biology, 2025)
